According to US8952024B2, “Herbicidal pyrimidone derivatives” (E I du Pont de Nemours and Company, priority 2009, dated 2015):

Tests used:
Type in all cases: in vivo
[1] = tested on: chickweed (Stellaria media); assay: Test B postemergence plant response; details: for Chickweed plant response rating (0 to 100 scale): 62 g ai/ha, 0 is no effect, 13 to 15 days
Procedure, shortened: (§1)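 Visual ratings from 0 (no effect) to 100 (complete control), made against controls 13–15 days after treatment, kept in a greenhouse. Compounds were applied postemergence to potted plants at the 1- to 4-leaf stage (2–18 cm).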

[2] = tested on: canarygrass (Phalaris minor); assay: Test B postemergence plant response; details: for Canarygrass plant response rating (0 to 100 scale): 62 g ai/ha, 0 is no effect, 13 to 15 days
Procedure, shortened: as §1

[3] = tested on: winter barley (Hordeum vulgare); assay: Test B postemergence plant response; details: for Barley plant response rating (0 to 100 scale): 62 g ai/ha, 0 is no effect, 13 to 15 days
Procedure, shortened: as §1

[4] = tested on: windgrass (Apera spica-venti); assay: Test B postemergence plant response; details: for Windgrass plant response rating (0 to 100 scale): 62 g ai/ha, 0 is no effect, 13 to 15 days
Procedure, shortened: as §1

corn (Zea mays) = assay: Test B pre-/postemergence plant response; details: for Corn plant response rating (0 to 100 scale): 62 g ai/ha, 0 is no effect, 13 to 15 days
Procedure, shortened: (§2)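 Greenhouse herbicide screen. Pre- and postemergence (1- to 4-leaf) spray of compound in solvent/surfactant mixture; loam–sand soil for pre, peat/vermiculite medium for post. Visual control rating 0–100 at 13 to 15 days after treatment.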

[5] = tested on: blackgrass (Alopecurus myosuroides); assay: Test B pre-/postemergence plant response; details: for Blackgrass plant response rating (0 to 100 scale): 62 g ai/ha, 0 is no effect, 13 to 15 days
Procedure, shortened: as §2

[6] = tested on: bermudagrass (Cynodon dactylon); assay: Test B pre-/postemergence plant response; details: for Bermudagrass plant response rating (0 to 100 scale): 62 g ai/ha, 0 is no effect, 13 to 15 days
Procedure, shortened: as §2

[7] = tested on: giant foxtail (Setaria faberii); assay: Test B pre-/postemergence plant response; details: for Foxtail, Giant plant response rating (0 to 100 scale): 62 g ai/ha, 0 is no effect, 13 to 15 days
Procedure, shortened: as §2

[8] = tested on: johnsongrass (Sorghum halepense); assay: Test B pre-/postemergence plant response; details: for Johnsongrass plant response rating (0 to 100 scale): 62 g ai/ha, 0 is no effect, 13 to 15 days
Procedure, shortened: as §2

wild oat (Avena fatua) = assay: Test B pre-/postemergence plant response; details: for Oat, Wild plant response rating (0 to 100 scale): 62 g ai/ha, 0 is no effect, 13 to 15 days
Procedure, shortened: as §2

soybean (Glycine max) = assay: Test B pre-/postemergence plant response; details: for Soybean plant response rating (0 to 100 scale): 62 g ai/ha, 0 is no effect, 13 to 15 days
Procedure, shortened: as §2

kochia (Kochia scoparia) = assay: Test B pre-/postemergence plant response; details: for Kochia plant response rating (0 to 100 scale): 62 g ai/ha, 0 is no effect, 13 to 15 days
Procedure, shortened: as §2

[9] = tested on: morningglory (Ipomoea coccinea); assay: Test B pre-/postemergence plant response; details: for Morningglory plant response rating (0 to 100 scale): 62 g ai/ha, 0 is no effect, 13 to 15 days
Procedure, shortened: as §2

[10] = tested on: cocklebur (Xanthium strumarium); assay: Test B pre-/postemergence plant response; details: for Cocklebur plant response rating (0 to 100 scale): 62 g ai/ha, 0 is no effect, 13 to 15 days
Procedure, shortened: as §2

[11] = 31 g ai/ha, postemergence, scale 0 to 100, 0 is no effect, 100 is complete control
[12] = postemergence, 100 is complete control
[13] = Postemergence, 125 g ai/ha, visual rating after 13 to 15 days, scale 0 (no effect) to 100 (complete control)
[14] = Postemergence, 250 g ai/ha, scale 0 to 100 (0 no effect, 100 complete control)
[15] = Postemergence, 125 g ai/ha, scale 0 to 100 (0 no effect, 100 complete control)

## CC(C)n1c(-c2ccccc2)ncc(C(=O)C2=C(O)CCCC2=O)c1=O [Compound 95]
[1]; [11]
  Plant response rating, Chickweed: 75
[1]; [12]
  Chickweed plant response rating (0 to 100 scale): 85
[1]; [13]
  Plant response rating, Chickweed: 98
[1]; [14]
  Plant response rating, Chickweed: 100
[2]; [11]
  Plant response rating, Canarygrass: 0
[2]; [12]
  Canarygrass plant response rating (0 to 100 scale): 0
[2]; [13]
  Plant response rating, Canarygrass: 0
[2]; [14]
  Plant response rating, Canarygrass: 0
[3]; [11]
  Plant response rating, Barley: 0
[3]; [12]
  Barley plant response rating (0 to 100 scale): 0
[3]; [13]
  Plant response rating, Barley: 0
[3]; [14]
  Plant response rating, Barley: 0
[4]; [11]
  Plant response rating, Windgrass: 0
[4]; [12]
  Windgrass plant response rating (0 to 100 scale): 0
[4]; [14]
  Plant response rating, Windgrass: 0
Corn (Zea mays); [11]
  Plant response rating, Corn: 0
Corn (Zea mays); [12]
  Corn plant response rating (0 to 100 scale): 0
Corn (Zea mays); [13]
  Plant response rating, Corn: 25
Corn (Zea mays); [14]
  Plant response rating, Corn: 35
[5]; [11]
  Plant response rating, Blackgrass: 0
[5]; [12]
  Blackgrass plant response rating (0 to 100 scale): 0
[5]; [13]
  Plant response rating, Blackgrass: 0
[5]; [14]
  Plant response rating, Blackgrass: 5
[6]; [11]
  Plant response rating, Bermudagrass: 45
[6]; [12]
  Bermudagrass plant response rating (0 to 100 scale): 75
[6]; [13]
  Plant response rating, Bermudagrass: 75
[6]; [14]
  Plant response rating, Bermudagrass: 90
[7]; [11]
  Plant response rating, Foxtail, Giant: 45
[7]; [12]
  Foxtail, Giant plant response rating (0 to 100 scale): 65
[7]; [14]
  Plant response rating, Foxtail, Giant: 85
[8]; [11]
  Plant response rating, Johnsongrass: 5
[8]; [12]
  Johnsongrass plant response rating (0 to 100 scale): 10
[8]; [14]
  Plant response rating, Johnsongrass: 45
Wild oat (Avena fatua); [11]
  Plant response rating, Oat, Wild: 0
Wild oat (Avena fatua); [12]
  Oat, Wild plant response rating (0 to 100 scale): 0
Wild oat (Avena fatua); [14]
  Plant response rating, Oat, Wild: 0
Soybean (Glycine max); [11]
  Plant response rating, Soybean: 95
Soybean (Glycine max); [12]
  Soybean plant response rating (0 to 100 scale): 98
Soybean (Glycine max); [14]
  Plant response rating, Soybean: 98
Kochia (Kochia scoparia); [11]
  Plant response rating, Kochia: 80
Kochia (Kochia scoparia); [12]
  Kochia plant response rating (0 to 100 scale): 100
Kochia (Kochia scoparia); [14]
  Plant response rating, Kochia: 100
[9]; [11]
  Plant response rating, Morningglory: 100
[9]; [12]
  Morningglory plant response rating (0 to 100 scale): 100
[9]; [14]
  Plant response rating, Morningglory: 100
[10]; [11]
  Plant response rating, Cocklebur: 70
[10]; [12]
  Cocklebur plant response rating (0 to 100 scale): 95
[10]; [13]
  Plant response rating, Cocklebur: 100
[10]; [14]
  Plant response rating, Cocklebur: 100

## CCCn1c(-c2ccc(F)cc2)ncc(C(=O)C2=C(O)CCCC2=O)c1=O [Compound 102]
[1]; [11]
  Plant response rating, Chickweed: 60
[1]; [12]
  Chickweed plant response rating (0 to 100 scale): 80
[1]; [15]
  Plant response rating, Chickweed: 95
[1]; [14]
  Plant response rating, Chickweed: 100
[2]; [11]
  Plant response rating, Canarygrass: 5
[2]; [12]
  Canarygrass plant response rating (0 to 100 scale): 20
[2]; [15]
  Plant response rating, Canarygrass: 30
[2]; [14]
  Plant response rating, Canarygrass: 50
[3]; [11]
  Plant response rating, Barley: 0
[3]; [12]
  Barley plant response rating (0 to 100 scale): 10
[3]; [15]
  Plant response rating, Barley: 30
[3]; [14]
  Plant response rating, Barley: 60
[4]; [12]
  Windgrass plant response rating (0 to 100 scale): 10
[4]; [15]
  Plant response rating, Windgrass: 60
Corn (Zea mays); [12]
  Corn plant response rating (0 to 100 scale): 15
Corn (Zea mays); [15]
  Plant response rating, Corn: 65
Corn (Zea mays); [14]
  Plant response rating, Corn: 70
[5]; [11]
  Plant response rating, Blackgrass: 0
[5]; [12]
  Blackgrass plant response rating (0 to 100 scale): 5
[5]; [15]
  Plant response rating, Blackgrass: 30
[5]; [14]
  Plant response rating, Blackgrass: 45
[6]; [11]
  Plant response rating, Bermudagrass: 80
[6]; [12]
  Bermudagrass plant response rating (0 to 100 scale): 85
[6]; [15]
  Plant response rating, Bermudagrass: 85
[6]; [14]
  Plant response rating, Bermudagrass: 100
[7]; [11]
  Plant response rating, Foxtail, Giant: 70
[7]; [12]
  Foxtail, Giant plant response rating (0 to 100 scale): 75
[7]; [15]
  Plant response rating, Foxtail, Giant: 80
[7]; [14]
  Plant response rating, Foxtail, Giant: 95
[8]; [11]
  Plant response rating, Johnsongrass: 20
[8]; [12]
  Johnsongrass plant response rating (0 to 100 scale): 25
[8]; [15]
  Plant response rating, Johnsongrass: 60
[8]; [14]
  Plant response rating, Johnsongrass: 75
Wild oat (Avena fatua); [11]
  Plant response rating, Oat, Wild: 5
Wild oat (Avena fatua); [12]
  Oat, Wild plant response rating (0 to 100 scale): 15
Wild oat (Avena fatua); [15]
  Plant response rating, Oat, Wild: 40
Wild oat (Avena fatua); [14]
  Plant response rating, Oat, Wild: 80
Soybean (Glycine max); [12]
  Soybean plant response rating (0 to 100 scale): 85
Soybean (Glycine max); [15]
  Plant response rating, Soybean: 95
Soybean (Glycine max); [14]
  Plant response rating, Soybean: 100
Kochia (Kochia scoparia); [11]
  Plant response rating, Kochia: 65
Kochia (Kochia scoparia); [12]
  Kochia plant response rating (0 to 100 scale): 70
Kochia (Kochia scoparia); [15]
  Plant response rating, Kochia: 100
Kochia (Kochia scoparia); [14]
  Plant response rating, Kochia: 100
[9]; [11]
  Plant response rating, Morningglory: 65
[9]; [12]
  Morningglory plant response rating (0 to 100 scale): 100
[9]; [15]
  Plant response rating, Morningglory: 100
[9]; [14]
  Plant response rating, Morningglory: 100
[10]; [11]
  Plant response rating, Cocklebur: 90
[10]; [12]
  Cocklebur plant response rating (0 to 100 scale): 95
[10]; [15]
  Plant response rating, Cocklebur: 100
[10]; [14]
  Plant response rating, Cocklebur: 100
